Tests used:
[1] = Pharmacokinetic and organ distribution studies of Annamycin and L-Annamycin; format: in vivo; details: CD-1, mouse, lung and plasma, intravenous, 4 mg/kg; AUC, 24 h; read-out: Annamycin levels (AUC, 24 h) in lungs relative to plasma
P-glycoprotein 1 (P-gp) = P-glycoprotein 1 (P-gp) (Homo sapiens, UniProt P08183); details: earlier studies; cited from earlier work
[2] = tested on: multidrug resistant (MDR) cell lines; details: earlier studies; cited from earlier work

Chain of P-glycoprotein 1 (P-gp) (P08183 whole entry, species assumed): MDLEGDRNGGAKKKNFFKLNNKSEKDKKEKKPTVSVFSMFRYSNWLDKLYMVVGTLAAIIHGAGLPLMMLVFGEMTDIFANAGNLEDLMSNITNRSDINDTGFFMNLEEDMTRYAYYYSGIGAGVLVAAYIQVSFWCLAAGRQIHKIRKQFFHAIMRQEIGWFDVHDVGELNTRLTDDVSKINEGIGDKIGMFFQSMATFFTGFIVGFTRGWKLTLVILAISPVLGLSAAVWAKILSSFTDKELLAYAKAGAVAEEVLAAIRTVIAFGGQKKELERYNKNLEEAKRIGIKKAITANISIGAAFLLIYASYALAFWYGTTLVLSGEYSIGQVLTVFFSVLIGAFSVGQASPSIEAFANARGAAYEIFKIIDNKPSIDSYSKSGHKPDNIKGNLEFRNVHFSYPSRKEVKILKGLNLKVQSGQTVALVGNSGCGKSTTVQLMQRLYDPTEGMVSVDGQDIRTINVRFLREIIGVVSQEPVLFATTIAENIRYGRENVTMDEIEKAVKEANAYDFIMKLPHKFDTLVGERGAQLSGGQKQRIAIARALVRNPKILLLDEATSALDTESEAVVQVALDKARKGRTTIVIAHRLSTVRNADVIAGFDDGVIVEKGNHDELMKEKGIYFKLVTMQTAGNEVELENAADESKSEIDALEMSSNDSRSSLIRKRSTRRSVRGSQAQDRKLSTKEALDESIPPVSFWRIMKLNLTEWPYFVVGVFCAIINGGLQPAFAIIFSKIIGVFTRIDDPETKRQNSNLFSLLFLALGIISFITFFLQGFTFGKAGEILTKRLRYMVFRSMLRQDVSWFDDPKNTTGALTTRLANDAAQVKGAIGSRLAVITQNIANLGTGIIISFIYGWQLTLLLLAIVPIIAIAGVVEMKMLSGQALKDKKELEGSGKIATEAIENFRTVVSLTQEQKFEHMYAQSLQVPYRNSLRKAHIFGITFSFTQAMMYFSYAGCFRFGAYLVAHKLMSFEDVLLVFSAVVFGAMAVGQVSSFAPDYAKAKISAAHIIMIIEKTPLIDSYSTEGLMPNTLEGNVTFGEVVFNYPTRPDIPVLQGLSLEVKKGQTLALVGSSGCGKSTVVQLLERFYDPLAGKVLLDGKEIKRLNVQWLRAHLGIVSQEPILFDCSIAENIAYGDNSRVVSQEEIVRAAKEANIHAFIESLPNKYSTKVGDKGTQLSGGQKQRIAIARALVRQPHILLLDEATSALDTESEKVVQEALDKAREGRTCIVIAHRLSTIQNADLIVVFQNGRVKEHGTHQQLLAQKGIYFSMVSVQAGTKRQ

- Kp [1]: > 10
SMILES: C[C@@H]1O[C@@H](O[C@H]2C[C@](O)(C(=O)CO)Cc3c(O)c4c(c(O)c32)C(=O)c2ccccc2C4=O)[C@H](I)[C@H](O)[C@H]1O [Annamycin, (7S,9S)-7-(((2R,3R,4R,5R,6S)-4,5-dihydroxy-3-iodo-6-methyltetrahydro-2H-pyran-2-yl)oxy)-6,9,11-trihydroxy-9-(2-hydroxyacetyl)-7,8,9,10-tetrahydrotetracene-5,12-dione]
- substrate for P-glycoprotein 1 (P-gp) (P-glycoprotein 1 (P-gp)): poor substrate
- cross-resistance with doxorubicin (DOX) [2]: not cross-resistant

Source: US20220347168A1, “LUNG TARGETED ANTICANCER THERAPIES WITH LIPOSOMAL ANNAMYCIN” (Board of Regents, The University of Texas System, priority 2019, published 2022)
